A short description of the experiment: radiolabeling kinetics of the ligands with Bi-207 (radio-TLC). The conditions noted are these: bismuth complexation, comparison among the four ligands. Here is the method:
The radiolabeling kinetics of the ligands L^py, L^pyd, L^pyr, and L^pz with bismuth ions was examined using Bi-207 (t1/2=32 years) because it has a much longer half life than Bi-213. Solutions having concentrations of 1, 10, 100, and 1000 micromolar (“μM”) of each of the ligands were prepared. Each solution was combined with 3 kBq of Bi-207. The reaction temperature was ambient room temperature (21±2° C.). Aliquots of each reaction mixture were obtained during the reaction and analyzed by radio-TLC. The rates of reaction (i.e. the radiolabeling kinetics) between the bismuth ions and the ligands were dependent on the individual ligand and also on the concentration of the ligand. At a ligand concentration of 1 μM, a maximum of 50% labeling was observed after 60 minutes. At a ligand concentration of 1000 micromolar, the reaction was nearly 100% complete (i.e. 100% of the ligand was labeled with Bi-207) after 5 minutes. FIG. 3 provides a graph of the radiolabeling kinetics for the four ligands at a ligand concentration of 100 μM. […] By comparison, chelation of Bi-213 with the known ligands DOTA and CHX-DTPA requires heating to 90° C.

The text below walks through data of patent US10450336B2 (Los Alamos National Security, LLC, priority 2014, dated 2019).

Take `c1cnc(CN2CCN(Cc3cnccn3)CCN(Cc3cnccn3)CCN(Cc3cnccn3)CC2)cn1` [L^py, 1,4,7,10-Tetrakis(2-pyrazinylmethyl)-1,4,7,10-tetraazacyclododecane, reference compound]: the “complexation kinetics (relative)” value is “slowest”.
